Test results reported in patent publication US8703779B2, “Preparation of crystalline forms of dihydropyrazolopyrimidinone” (Merck Sharp & Dohme Corp., priority 2009, dated 2014).

Key:
[1] = relative thermodynamic stability of crystalline forms; assay type: physicochemical
Protocol: The novel crystalline forms of Compound A or a salt thereof, especially the hemihydrates described herein, can be provided stably and constantly from the standpoint of the manufacturing process, and are useful in the treatment of cancer. […] The relative stability of the hemihydrates and monohydrate Form G at relative humidity higher than 93% has been difficult to establish, because the solubility of the three crystalline forms are very close (difference <1 mg/mL) and the conversion is very slow.

Weel kinase = Weel kinase (Homo sapiens, UniProt P30291); details: cited from earlier work
Sequence of Weel kinase (P30291 whole entry): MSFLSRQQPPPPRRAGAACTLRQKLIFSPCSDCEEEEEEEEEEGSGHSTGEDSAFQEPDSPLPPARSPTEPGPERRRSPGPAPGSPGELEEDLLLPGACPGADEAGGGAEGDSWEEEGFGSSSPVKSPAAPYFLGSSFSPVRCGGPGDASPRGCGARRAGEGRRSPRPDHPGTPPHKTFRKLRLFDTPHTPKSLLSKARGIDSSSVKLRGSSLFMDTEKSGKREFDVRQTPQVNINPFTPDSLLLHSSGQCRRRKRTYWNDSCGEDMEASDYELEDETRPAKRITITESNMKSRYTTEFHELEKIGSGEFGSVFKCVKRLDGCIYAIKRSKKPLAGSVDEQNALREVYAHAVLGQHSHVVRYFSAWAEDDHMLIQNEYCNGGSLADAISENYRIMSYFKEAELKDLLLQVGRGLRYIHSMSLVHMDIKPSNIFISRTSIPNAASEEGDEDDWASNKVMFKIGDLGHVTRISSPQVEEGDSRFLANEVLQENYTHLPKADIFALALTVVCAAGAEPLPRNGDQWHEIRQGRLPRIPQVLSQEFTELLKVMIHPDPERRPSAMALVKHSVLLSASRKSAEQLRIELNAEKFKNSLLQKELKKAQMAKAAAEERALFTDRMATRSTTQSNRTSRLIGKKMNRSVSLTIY

For `C=CCn1c(=O)c2cnc(Nc3ccc(N4CCN(C)CC4)cc3)nc2n1-c1cccc(C(C)(C)O)n1` [crystalline hemihydrate form II, 2-allyl-1-[6-(1-hydroxy-1-methylethyl)pyridin-2-yl]-6-{[4-(4-methylpiperazin-1-yl)phenyl]amino}-1,2-dihydro-3H-pyrazolo[3,4-d]pyrimidin-3-one], the “thermodynamic stability relative to other known forms” value ([1]; temperatures equal or higher than 48° C. and relative humidity range of 19-93%) was “more stable thermodynamically than other known forms”.

With `C=CCn1c(=O)c2cnc(Nc3ccc(N4CCN(C)CC4)cc3)nc2n1-c1cccc(C(C)(C)O)n1` [crystalline hemihydrate form I, 2-allyl-1-[6-(1-hydroxy-1-methylethyl)pyridin-2-yl]-6-{[4-(4-methylpiperazin-1-yl)phenyl]amino}-1,2-dihydro-3H-pyrazolo[3,4-d]pyrimidin-3-one] the “thermodynamic stability relative to other known forms” value ([1]; temperatures up to 44° C. and relative humidity range of 14-93%) was “more stable thermodynamically than other known forms”.

In the case of `C=CCn1c(=O)c2cnc(Nc3ccc(N4CCN(C)CC4)cc3)nc2n1-c1cccc(C(C)(C)O)n1` [Compound A, 2-allyl-1-[6-(1-hydroxy-1-methylethyl)pyridin-2-yl]-6-{[4-(4-methylpiperazin-1-yl)phenyl]amino}-1,2-dihydro-3H-pyrazolo[3,4-d]pyrimidin-3-one], the “Weel kinase inhibitory effect” value (Weel kinase) is listed as “excellent Weel kinase inhibitory effect”.
